In ChEMBL document CHEMBL4130583, “Artocarmins G-M, Prenylated 4-Chromenones from the Stems of Artocarpus rigida and Their Tyrosinase Inhibitory Activities” (J Nat Prod, 2017) one finds IC50 and Ratio IC50 data, which are given here for two compounds.

Broadly, the IC50 is the concentration needed to halve the response being measured. The low end stands for inhibition by little substance, the high end for a need for much substance.

One test deals with T1, Tyrosinase (Homo sapiens, UniProt P14679).
T1 sequence (P14679 whole entry): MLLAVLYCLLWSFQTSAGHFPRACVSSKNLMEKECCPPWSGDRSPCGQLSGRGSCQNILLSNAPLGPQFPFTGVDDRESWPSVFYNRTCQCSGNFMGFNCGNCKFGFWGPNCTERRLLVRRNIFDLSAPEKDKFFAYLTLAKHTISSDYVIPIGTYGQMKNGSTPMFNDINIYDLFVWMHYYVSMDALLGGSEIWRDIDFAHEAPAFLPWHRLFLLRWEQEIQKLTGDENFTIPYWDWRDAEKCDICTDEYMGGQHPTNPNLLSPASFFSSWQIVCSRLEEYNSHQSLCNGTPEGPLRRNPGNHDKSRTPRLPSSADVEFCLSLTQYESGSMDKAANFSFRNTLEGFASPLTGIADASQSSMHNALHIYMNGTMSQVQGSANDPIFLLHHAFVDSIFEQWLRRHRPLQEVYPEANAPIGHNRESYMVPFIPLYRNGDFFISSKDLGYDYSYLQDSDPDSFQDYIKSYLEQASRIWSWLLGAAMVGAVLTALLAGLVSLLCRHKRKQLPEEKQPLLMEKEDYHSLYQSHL
Put plainly: Inhibition of tyrosinase (unknown origin) using L-dihydroxyphenylalanine as substrate preincubated for 30 mins followed by substrate addition measured for 7 mins by spectrophotometric analysis.

Test [1] deals with T2, Tyrosinase (Homo sapiens) (UniProt P14679).
T2 sequence (whole entry): T1 sequence (P14679 whole entry)
As to the kind of experiment: Potency index, ratio of kojic acid IC50 to compound IC50 for tyrosinase (unknown origin).

As for `O=c1cc(-c2ccc(O)cc2O)oc2cc(O)cc(O)c12` [NORARTOCARPETIN], the IC50 against Tyrosinase was determined as 0.023 µM. The Ratio IC50 in test [1] worked out at 1900.
In turn, `COc1c(-c2oc3cc(O)cc(O)c3c(=O)c2CC=C(C)C)cc(O)c(O)c1CC=C(C)C` registered an IC50 against Tyrosinase of 45.3 µM.
